Results reported in patent publication US20250282749A1 (Tango Therapeutics, Inc., priority 2022, published 2025).

Assays:
Type in all cases: cell-based
[1] = test system: PRMT5 (SDMA) in HAP1 MTAP-deleted cell line; test: SDMA in-cell western assay, HAP1 MTAP-deleted cell line; details: for IC50 / IC90: Homo sapiens, SDMA in-cell western, HAP1 MTAP-deleted (MTAP-null) cell line; for Hap1 MTAP intact/deleted ratio: ratio of SDMA in-cell western IC50 in HAP1 MTAP-intact to IC50 in HAP1 MTAP-deleted cell line
Text: (§1) HAP1 MTAP-intact is a cell line in which endogenous levels of MTAP are expressed, and HAP1 MTAP-deleted is an MTAP-null cell line.

[2] = test system: HAP1 MTAP-deleted cell line; test: viability assay for the MTAP-deleted cell line; details: Homo sapiens
[3] = test system: PRMT5 (SDMA) in HAP1 MTAP-intact cell line; test: SDMA in-cell western assay, HAP1 MTAP-intact cell line; details: Homo sapiens, HAP1 MTAP-intact cell line (endogenous MTAP), read-out: Hap 1 MTAP intact IC50
Text: as §1

Row | IC50 [1] [µM] | IC90 [1] [µM] | IC50 [3] [µM] | SMILES | Hap1 MTAP intact/deleted ratio [1] | IC50 [2] [µM]
1 | < 0.005 | < 0.075 | 0.005 to 0.05 | C[C@@H]1CN(C(=O)C(=O)Nc2cncc3cn[nH]c23)[C@@H](c2ccccc2)CN1C(=O)C(C)(C)C [Compound 156, 2-((2S,5R)-5-methyl-2-phenyl-4-pivaloylpiperazin-1-yl)-2-oxo-N-(1H-pyrazolo[4,3-c]pyridin-7-yl)acetamide] | C (an IC50 ratio of less than 15 fold) | < 0.1
2 | 0.005 to 0.05 | > 0.125 | > 0.05 | Cc1cc(NC(=O)C(=O)N2C[C@@H](C)N(C(=O)C(C)C)C[C@@H]2c2ccc(F)c(F)c2)cnc1N [Compound 158, N-(6-amino-5-methylpyridin-3-yl)-2-((2S,5R)-2-(3,4-difluorophenyl)-4-isobutyryl-5-methylpiperazin-1-yl)-2-oxoacetamide] | A (an IC50 ratio greater than or equal to 30 fold) | 0.1 to 1
3 | > 0.05 | > 0.125 | > 0.05 | CC(C)C(=O)N1C[C@@H](c2ccc(F)c(F)c2)N(C(=O)C(=O)Nc2cnc(N)c(C3CC3)c2)C[C@H]1C [Compound 160, N-(6-amino-5-cyclopropylpyridin-3-yl)-2-((5R)-2-(3,4-difluorophenyl)-4-isobutyryl-5-methylpiperazin-1-yl)-2-oxoacetamide] | C (an IC50 ratio of less than 15 fold) | > 1
4 | 0.005 to 0.05 | 0.075 to 0.125 | > 0.05 | C[C@@H]1CN(C(=O)C(=O)Nc2cnc(N)c3c2cnn3C)[C@@H](c2ccccc2)CN1C [Compound 164, N-(7-Amino-1-methyl-pyrazolo[3,4-c]pyridin-4-yl)-2-oxo-2-[(2S,5R)-4,5-dimethyl-2-phenyl-piperazin-1-yl]acetamide] | A (an IC50 ratio greater than or equal to 30 fold) | < 0.1
5 | < 0.005 | < 0.075 | 0.005 to 0.05 | C[C@@H]1CN(C(=O)C(=O)Nc2cnc(N)c3c2cnn3C)[C@@H](c2ccccc2)CN1C(=O)C1(C)CC1 [Compound 169, N-(7-Amino-1-methyl-pyrazolo[3,4-c]pyridin-4-yl)-2-oxo-2-[(2S,5R)-5-methyl-4-(1-methylcyclopropanecarbonyl)-2-phenyl-piperazin-1-yl]acetamide] | C (an IC50 ratio of less than 15 fold) | < 0.1
